Data on 1 compound can be found in US20090325952A1, “PYRAZOLO[3,4-B]PYRIDINE COMPOUNDS, AND THEIR USE AS PDE4 INHIBITORS” (Glaxo Group Limited, priority 2006, published 2009).

Each structure is given as a SMILES string.

Assay [1] deals with PDE5 (human recombinant) (Homo sapiens, UniProt O76074). Description: Inhibition of PDE5 activity (FP or SPA assays). The assay is classed as biochemical. To be noted: selectivity PDE4B over PDE5. An excerpt:
Human recombinant PDE5 is disclosed in K. Loughney et al., “Isolation and characterisation of cDNAs encoding PDE5A, a human cGMP-binding, cGMP-specific 3′,5′-cyclic nucleotide phosphodiesterase”, Gene, 1998, 216, 139-147.
(§1) The ability of compounds to inhibit catalytic activity at PDE4B or 4D (human recombinant), PDE3 (from bovine aorta), PDE5 (human recombinant) or PDE6 (from bovine retina) can optionally be determined by Scintillation Proximity Assay (SPA) in a 96-well format.
(§2) Test compounds (as a solution in DMSO, suitably about 2 microlitre (ul) volume of DMSO solution) are preincubated at ambient temperature (room temperature, e.g. 19-23° C.) in Wallac Isoplates (code 1450-514) with PDE enzyme in 50 mM Tris-HCl buffer pH 7.5, 8.3 mM MgCl2, 1.7 mM EGTA, 0.05% (w/v) bovine serum albumin for 10-30 minutes (usually 30 minutes). The enzyme concentration is adjusted so that no more than 20% hydrolysis of the substrate defined below occurs in control wells without compound, during the incubation. […] Bound radioactive product is measured using a WALLAC TRILUX 1450 Microbeta scintillation counter. […] Curves are analysed using ActivityBase and XLfit (ID Business Solutions Limited, 2 Ocean Court, Surrey Research Park, Guildford, Surrey GU2 7QB, United Kingdom) Results are expressed as pIC50 values. […]

The test system of assay [2] is PDE3 (from bovine aorta). Briefly: Inhibition of PDE3 activity (FP or SPA assays). The assay is classed as biochemical. As to conditions: selectivity PDE4B over PDE3.
Source text: PDE3 can be purified from bovine aorta as described by H. Coste and P. Grondin, “Characterisation of a novel potent and specific inhibitor of type V phosphodiesterase”, Biochem. Pharmacol., 1995, 50, 1577-1585.
as §1, §2

Regarding `CCc1nc2c(cnn2CC)c(NC2CCOCC2)c1CNC(=O)c1ccc(NC(=O)CCCCCCCN(C)CCO)cc1` [Example 1B, N-{[1,6-diethyl-4-(tetrahydro-2H-pyran-4-ylamino)-1H-pyrazolo[3,4-b]pyridin-5-yl]methyl}-4-({8-[(2-hydroxyethyl)(methyl)amino]octanoyl}amino)benzamide], the “PDE4B inhibition compared with PDE5 inhibition (pIC50 values)” value in assay [1] was “inhibit PDE4B more strongly than they inhibit PDE3, PDE5 and PDE6”. Further, the “PDE4B inhibition compared with PDE3 inhibition (pIC50 values)” value in assay [2] is “inhibit PDE4B more strongly than they inhibit PDE3, PDE5 and PDE6”.
